Test results taken from the supplement of paper PMC10307832.

How the values were obtained:
Assay in all cases: relative viability (nuclei count vs DMSO), 5 days (fraction); higher = more cells survive
Sulindac + Vorinostat = compound: CC1=C(CC(=O)O)c2cc(F)ccc2/C1=C\c1ccc([S+](C)[O-])cc1 [Sulindac] + O=C(CCCCCCC(=O)Nc1ccccc1)NO [Vorinostat] (partner 1 µM)
How it was run: (§1)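 Relative viability divides the nuclei count in treated wells by that in vehicle wells. Lung cancer cell lines were seeded in 1536-well plates, dosed by pin tool the next day, and fixed and stained after 5 days in one step with final 0.05% Triton X-100, 1% formaldehyde and 1 ug/ml Hoechst. Dosing was a single drug or a fixed anchor-drug dose plus five library-drug doses (not always all listed) in √10 steps, and values are medians of duplicate plates imaged at 4×.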

[1] = compound: CN[C@@H]1C[C@H]2O[C@@](C)([C@@H]1OC)n1c3ccccc3c3c4c(c5c6ccccc6n2c5c31)C(=O)NC4 [Staurosporine] + CC(C)C[C@H](NC(=O)[C@H](Cc1ccccc1)NC(=O)c1cnccn1)B(O)O [Bortezomib] (partner 0.002 µM)
How it was run: as §1

Sulindac + Palbociclib = compound: CC1=C(CC(=O)O)c2cc(F)ccc2/C1=C\c1ccc([S+](C)[O-])cc1 [Sulindac] + CC(=O)c1c(C)c2cnc(Nc3ccc(N4CCNCC4)cn3)nc2n(C2CCCC2)c1=O [Palbociclib] (partner 0.5 µM)
How it was run: as §1

Sulindac + Luminespib = compound: CC1=C(CC(=O)O)c2cc(F)ccc2/C1=C\c1ccc([S+](C)[O-])cc1 [Sulindac] + CCNC(=O)c1noc(-c2cc(C(C)C)c(O)cc2O)c1-c1ccc(CN2CCOCC2)cc1 [Luminespib] (partner 0.01 µM)
How it was run: as §1

Cell Line: UMC-11
- relative viability (Sulindac + Vorinostat; first compound 0.08 µM): 0.342
- relative viability (Sulindac + Vorinostat; first compound 0.253 µM): 0.411
- relative viability (Sulindac + Vorinostat; first compound 0.8 µM): 0.374
- relative viability (Sulindac + Vorinostat; first compound 2.53 µM): 0.338
- relative viability (Sulindac + Vorinostat; first compound 8 µM): 0.386
- relative viability ([1]; first compound 0.005 µM): 0.664
- relative viability ([1]; first compound 0.01581 µM): 0.131
- relative viability ([1]; first compound 0.05 µM): 0.454
- relative viability ([1]; first compound 0.1581 µM): 0.0878
- relative viability ([1]; first compound 0.5 µM): 0.0678
- relative viability (Sulindac + Palbociclib; first compound 0.08 µM): 0.304
- relative viability (Sulindac + Palbociclib; first compound 0.253 µM): 0.333
- relative viability (Sulindac + Palbociclib; first compound 0.8 µM): 0.318
- relative viability (Sulindac + Palbociclib; first compound 2.53 µM): 0.328
- relative viability (Sulindac + Palbociclib; first compound 8 µM): 0.364
- relative viability (Sulindac + Luminespib; first compound 0.08 µM): 1.27
- relative viability (Sulindac + Luminespib; first compound 0.253 µM): 1.12
- relative viability (Sulindac + Luminespib; first compound 0.8 µM): 0.717
- relative viability (Sulindac + Luminespib; first compound 2.53 µM): 1.01
- relative viability (Sulindac + Luminespib; first compound 8 µM): 1.13
